# Test results published in patent US20180200257A1, “METHODS FOR THE TREATMENT OF INFLAMMATORY DISORDERS” (Galapagos NV, priority 2015, published 2018).
# Tested on: subjects with moderately to severely active RA who have an inadequate response to methotrexate (MTX)
# Test: Study 2 (monotherapy) - Creatinine levels
# Format: in vivo, human
# From the text: Randomized, double-blind, placebo-controlled, multicenter, phase IIb dose finding study of Compound 1 (dosed as a [Compound 1:HCl:3H2O]) administered for 24 weeks as monotherapy to subjects with moderately to severely active rheumatoid arthritis who have an inadequate response to methotrexate alone
# Double-blind, placebo-controlled, monotherapy study in subjects with moderately to severely active RA who have an inadequate response to methotrexate (MTX) (oral or parenteral).
# 280 subjects randomized to one of 3 doses of Compound 1 (dosed as a [Compound 1:HCl:3H2O]) or to placebo, given once daily (q.d.).
# Twelve weeks of treatment with Compound 1 (dosed as a [Compound 1:HCl:3H2O]) at 50 mg, 100 mg, or 200 mg q.d.; or placebo. At Week 12, all subjects on placebo and the subjects on the 50 mg dose who have not achieved 20% improvement in swollen joint count (SJC66) and tender joint count (TJC68) will be assigned to 100 mg q.d. in a blinded fashion and will continue treatment until Week 24. Subjects in the other groups will maintain their randomized treatment until Week 24.
# Creatinine levels determination is available at Quest Diagnostics, Clinical Trials, Quest House, 125-135 Staines Road, Hounslow, Middlesex, TW3 3JB, United Kingdom under Catalogue n# 82565. For Study 3, the data are obtained at BARC Europe, 3B,Industrie Park, Zwijnaarde, B-9052 Ghent, Belgium.
# The Enzymatic method is based on the determination of sarcosine after conversion of creatinine with the aid of creatininase, creatinase, and sarcosine oxidase. The liberated hydrogen peroxide reacts with 4-aminophenazone and HTIB to form a quinone imine chromogen. The reaction is catalyzed by peroxidase. The color intensity is directly proportional to concentration of creatinine present and can be measured photometrically.
# Subjects in the other groups maintained their randomized treatment until Week 24.
# [1] = 50 mg q.d. non responders switching to 100 mg q.d. at week 12 (N = 15), week 0
# [2] = 50 mg q.d. non responders switching to 100 mg q.d. at week 12 (N = 15), week 1
# [3] = 50 mg q.d. non responders switching to 100 mg q.d. at week 12 (N = 15), week 2
# [4] = 50 mg q.d. non responders switching to 100 mg q.d. at week 12 (N = 15), week 4
# [5] = 50 mg q.d. non responders switching to 100 mg q.d. at week 12 (N = 15), week 8
# [6] = 50 mg q.d. non responders switching to 100 mg q.d. at week 12 (N = 15), week 12
# [7] = 50 mg q.d. non responders switching to 100 mg q.d. at week 12 (N = 15), week 16
# [8] = 50 mg q.d. non responders switching to 100 mg q.d. at week 12 (N = 15), week 20
# [9] = 50 mg q.d. non responders switching to 100 mg q.d. at week 12 (N = 15), week 24
# [10] = 50 mg q.d. responders (N = 57), week 0
# [11] = 50 mg q.d. responders (N = 57), week 1
# [12] = 50 mg q.d. responders (N = 57), week 2
# [13] = 50 mg q.d. responders (N = 57), week 4
# [14] = 50 mg q.d. responders (N = 57), week 8
# [15] = 50 mg q.d. responders (N = 57), week 12
# [16] = 50 mg q.d. responders (N = 57), week 16
# [17] = 50 mg q.d. responders (N = 57), week 20
# [18] = 50 mg q.d. responders (N = 57), week 24
# [19] = 100 mg q.d. (N = 70), 24 weeks results, week 0
# [20] = 100 mg q.d. (N = 70), 24 weeks results, week 1
# [21] = 100 mg q.d. (N = 70), 24 weeks results, week 2
# [22] = 100 mg q.d. (N = 70), 24 weeks results, week 4
# [23] = 100 mg q.d. (N = 70), 24 weeks results, week 8
# [24] = 100 mg q.d. (N = 70), 24 weeks results, week 12
# [25] = 100 mg q.d. (N = 70), 24 weeks results, week 16
# [26] = 100 mg q.d. (N = 70), 24 weeks results, week 20
# [27] = 100 mg q.d. (N = 70), 24 weeks results, week 24
# [28] = 200 mg q.d. (N = 69), 24 weeks results, week 0
# [29] = 200 mg q.d. (N = 69), 24 weeks results, week 1
# [30] = 200 mg q.d. (N = 69), 24 weeks results, week 2
# [31] = 200 mg q.d. (N = 69), 24 weeks results, week 4
# [32] = 200 mg q.d. (N = 69), 24 weeks results, week 8
# [33] = 200 mg q.d. (N = 69), 24 weeks results, week 12
# [34] = 200 mg q.d. (N = 69), 24 weeks results, week 16
# [35] = 200 mg q.d. (N = 69), 24 weeks results, week 20
# [36] = 200 mg q.d. (N = 69), 24 weeks results, week 24
# [37] = placebo switching to 100 mg q.d. at week 12 (N = 72), week 16
# [38] = placebo switching to 100 mg q.d. at week 12 (N = 72), week 20
# [39] = placebo switching to 100 mg q.d. at week 12 (N = 72), week 24
structure (smiles),measurement,setting,value
"O=C(Nc1nc2cccc(-c3ccc(CN4CCS(=O)(=O)CC4)cc3)n2n1)C1CC1 [Compound 1, cyclopropanecarboxylic acid {5-[4-(1,1-dioxo-thiomorpholin-4-ylmethyl)-phenyl]-[1,2,4]triazolo[1,5-a]pyridin-2-yl}-amide]",Creatinine Mean CFB,"50 mg q.d. (N = 72), week 0",0.00 µmol/L
same,Creatinine Mean percentage CFB,"50 mg q.d. (N = 72), week 0",0.00%
same,Creatinine Mean CFB,"50 mg q.d. (N = 72), week 1",0.42 µmol/L
same,Creatinine Mean percentage CFB,"50 mg q.d. (N = 72), week 1",1.10%
same,Creatinine Mean CFB,"50 mg q.d. (N = 72), week 2",1.25 µmol/L
same,Creatinine Mean percentage CFB,"50 mg q.d. (N = 72), week 2",2.59%
same,Creatinine Mean CFB,"50 mg q.d. (N = 72), week 4",1.32 µmol/L
same,Creatinine Mean percentage CFB,"50 mg q.d. (N = 72), week 4",3.01%
same,Creatinine Mean CFB,"50 mg q.d. (N = 72), week 8",2.20 µmol/L
same,Creatinine Mean percentage CFB,"50 mg q.d. (N = 72), week 8",4.34%
same,Creatinine Mean CFB,"50 mg q.d. (N = 72), week 12",3.16 µmol/L
same,Creatinine Mean percentage CFB,"50 mg q.d. (N = 72), week 12",6.02%
same,Creatinine Mean CFB,[1],0.0 µmol/L
same,Creatinine Mean percentage CFB,[1],0.00%
same,Creatinine Mean CFB,[2],1.1 µmol/L
same,Creatinine Mean percentage CFB,[2],2.03%
same,Creatinine Mean CFB,[3],2.0 µmol/L
same,Creatinine Mean percentage CFB,[3],3.77%
same,Creatinine Mean CFB,[4],0.6 µmol/L
same,Creatinine Mean percentage CFB,[4],1.58%
same,Creatinine Mean CFB,[5],6.2 µmol/L
same,Creatinine Mean percentage CFB,[5],10.36%
same,Creatinine Mean CFB,[6],0.0 µmol/L
same,Creatinine Mean percentage CFB,[6],0.74%
same,Creatinine Mean CFB,[7],5.9 µmol/L
same,Creatinine Mean percentage CFB,[7],11.14%
same,Creatinine Mean CFB,[8],4.5 µmol/L
same,Creatinine Mean percentage CFB,[8],8.07%
same,Creatinine Mean CFB,[9],5.2 µmol/L
same,Creatinine Mean percentage CFB,[9],9.28%
same,Creatinine Mean CFB,[10],0.0 µmol/L
same,Creatinine Mean percentage CFB,[10],0.00%
same,Creatinine Mean CFB,[11],0.2 µmol/L
same,Creatinine Mean percentage CFB,[11],0.86%
same,Creatinine Mean CFB,[12],1.0 µmol/L
same,Creatinine Mean percentage CFB,[12],2.27%
same,Creatinine Mean CFB,[13],1.5 µmol/L
same,Creatinine Mean percentage CFB,[13],3.40%
same,Creatinine Mean CFB,[14],1.1 µmol/L
same,Creatinine Mean percentage CFB,[14],2.67%
same,Creatinine Mean CFB,[15],4.0 µmol/L
same,Creatinine Mean percentage CFB,[15],7.51%
same,Creatinine Mean CFB,[16],1.9 µmol/L
same,Creatinine Mean percentage CFB,[16],3.91%
same,Creatinine Mean CFB,[17],3.6 µmol/L
same,Creatinine Mean percentage CFB,[17],7.19%
same,Creatinine Mean CFB,[18],1.6 µmol/L
same,Creatinine Mean percentage CFB,[18],3.16%
same,Creatinine Mean CFB,[19],0.0 µmol/L
same,Creatinine Mean percentage CFB,[19],0.00%
same,Creatinine Mean CFB,[20],1.2 µmol/L
same,Creatinine Mean percentage CFB,[20],3.00%
same,Creatinine Mean CFB,[21],1.5 µmol/L
same,Creatinine Mean percentage CFB,[21],3.21%
same,Creatinine Mean CFB,[22],1.1 µmol/L
same,Creatinine Mean percentage CFB,[22],3.23%
same,Creatinine Mean CFB,[23],3.2 µmol/L
same,Creatinine Mean percentage CFB,[23],5.79%
same,Creatinine Mean CFB,[24],1.7 µmol/L
same,Creatinine Mean percentage CFB,[24],3.96%
same,Creatinine Mean CFB,[25],2.9 µmol/L
same,Creatinine Mean percentage CFB,[25],6.44%
same,Creatinine Mean CFB,[26],2.3 µmol/L
same,Creatinine Mean percentage CFB,[26],4.63%
same,Creatinine Mean CFB,[27],2.0 µmol/L
same,Creatinine Mean percentage CFB,[27],4.17%
same,Creatinine Mean CFB,"100 mg q.d. (N = 70), week 0",0.00 µmol/L
same,Creatinine Mean percentage CFB,"100 mg q.d. (N = 70), week 0",0.00%
same,Creatinine Mean CFB,"100 mg q.d. (N = 70), week 1",1.19 µmol/L
same,Creatinine Mean percentage CFB,"100 mg q.d. (N = 70), week 1",3.00%
same,Creatinine Mean CFB,"100 mg q.d. (N = 70), week 2",1.48 µmol/L
same,Creatinine Mean percentage CFB,"100 mg q.d. (N = 70), week 2",3.21%
same,Creatinine Mean CFB,"100 mg q.d. (N = 70), week 4",1.10 µmol/L
same,Creatinine Mean percentage CFB,"100 mg q.d. (N = 70), week 4",3.23%
same,Creatinine Mean CFB,"100 mg q.d. (N = 70), week 8",3.19 µmol/L
same,Creatinine Mean percentage CFB,"100 mg q.d. (N = 70), week 8",5.79%
same,Creatinine Mean CFB,"100 mg q.d. (N = 70), week 12",1.75 µmol/L
same,Creatinine Mean percentage CFB,"100 mg q.d. (N = 70), week 12",3.96%
same,Creatinine Mean CFB,[28],0.0 µmol/L
same,Creatinine Mean percentage CFB,[28],0.00%
same,Creatinine Mean CFB,[29],4.7 µmol/L
same,Creatinine Mean percentage CFB,[29],8.07%
same,Creatinine Mean CFB,[30],5.0 µmol/L
same,Creatinine Mean percentage CFB,[30],8.56%
same,Creatinine Mean CFB,[31],4.3 µmol/L
same,Creatinine Mean percentage CFB,[31],7.37%
same,Creatinine Mean CFB,[32],4.8 µmol/L
same,Creatinine Mean percentage CFB,[32],8.70%
same,Creatinine Mean CFB,[33],3.8 µmol/L
same,Creatinine Mean percentage CFB,[33],7.96%
same,Creatinine Mean CFB,[34],5.3 µmol/L
same,Creatinine Mean percentage CFB,[34],9.81%
same,Creatinine Mean CFB,[35],6.6 µmol/L
same,Creatinine Mean percentage CFB,[35],13.11%
same,Creatinine Mean CFB,[36],3.5 µmol/L
same,Creatinine Mean percentage CFB,[36],8.41%
same,Creatinine Mean CFB,"200 mg q.d. (N = 69), week 0",0.00 µmol/L
same,Creatinine Mean percentage CFB,"200 mg q.d. (N = 69), week 0",0.00%
same,Creatinine Mean CFB,"200 mg q.d. (N = 69), week 1",4.68 µmol/L
same,Creatinine Mean percentage CFB,"200 mg q.d. (N = 69), week 1",8.07%
same,Creatinine Mean CFB,"200 mg q.d. (N = 69), week 2",4.99 µmol/L
same,Creatinine Mean percentage CFB,"200 mg q.d. (N = 69), week 2",8.56%
same,Creatinine Mean CFB,"200 mg q.d. (N = 69), week 4",4.28 µmol/L
same,Creatinine Mean percentage CFB,"200 mg q.d. (N = 69), week 4",7.37%
same,Creatinine Mean CFB,"200 mg q.d. (N = 69), week 8",4.82 µmol/L
same,Creatinine Mean percentage CFB,"200 mg q.d. (N = 69), week 8",8.70%
same,Creatinine Mean CFB,"200 mg q.d. (N = 69), week 12",3.80 µmol/L
same,Creatinine Mean percentage CFB,"200 mg q.d. (N = 69), week 12",7.96%
same,Creatinine Mean CFB,[37],1.9 µmol/L
same,Creatinine Mean percentage CFB,[37],3.61%
same,Creatinine Mean CFB,[38],2.7 µmol/L
same,Creatinine Mean percentage CFB,[38],5.14%
same,Creatinine Mean CFB,[39],4.6 µmol/L
same,Creatinine Mean percentage CFB,[39],8.41%
